Patent US4075190A, “Pentapeptide with morphine-like activity” (American Home Products Corporation, priority 1977, dated 1978)
Square brackets hold non-standard residues; d marks the D form. Peptide text beside a SMILES is read from it.

Columns and labels:
rats [1] = details: injection in the brain ventricle in rats; cited from earlier work
rats [2] = assay: rat-tail flick method, intracerebroventricular injection; assay type: in vivo; details: for Mean % Change ± SEM: change in latency, drug minus baseline; for analgesic effect / pain threshold: injected into the lateral brain ventricle; for analgesic effect / pain threshold / Mean Latency ± SEM, Drug: rat-tail flick; for Mean Latency ± SEM, Drug: after drug
Description: In this test method, which is a standard test for analgesia, a light beam is focused on the tip of the rat's tail, and the pain threshold of the animal is measured by the latency of the rat to remove his tail from the noxious heat source. When tested by the rat-tail flick method by intracerebroventricular injection, according to the procedure of Belluzzi et al., Nature, 260, 625 (1976), the pentapeptide H-Tyr-Gly-Gly-Phe-d-Lys-OH produced the effects set forth in Table I.
*All drugs were dissolved in […]. of Ringer's solution and injected int
the lateral ventricle through permanently-indwelling cannulae.

opiate receptors = assay: displacement of 3H-naloxone from binding sites in rat brain homogenates
guinea pig ileum = details: cited from earlier work
mouse vas deferens = details: cited from earlier work
opiate receptor = details: brain homogenates; cited from earlier work
[3] = dose 100 μg into the lateral ventricle
[4] = dose 10 μg into the lateral ventricle

## H-Tyr-Gly-Gly-Phe-Leu-OH [leucine-enkephalin]
Rats [1]
  analgesia: induce a profound analgesia that is fully reversible by naloxone

## NCCCC[C@@H](NC(=O)[C@H](Cc1ccccc1)NC(=O)CNC(=O)CNC(=O)[C@@H](N)Cc1ccc(O)cc1)C(=O)O [H-Tyr-Gly-Gly-Phe-D-Lys-OH, L-Tyrosyl-Glycyl-Glycyl-L-Phenylalanyl-D-Lysine] (H-YGGF[dK]-OH)
Rats [2]; [3]
  Mean % Change ± SEM: 78.97 ± 7.85%
  Mean Latency ± SEM, Drug: 6.16 ± 0.06
Rats [2]
  analgesic effect / pain threshold: produced an increase in pain threshold
Rats [2]; listed as pentapeptide of Formula I
  analgesic effect / pain threshold: exerts an analgesic effect
Opiate receptors; in vitro
  binding to opiate receptors: weak binding
Opiate receptors; rat brain homogenates
  displacement of 3H-naloxone from binding sites: capable of displacing 3h-naloxone

## CN1CC[C@]23c4c5ccc(O)c4O[C@H]2[C@@H](O)C=C[C@H]3[C@H]1C5.O=S(=O)(O)O [Morphine Sulfate]
Rats [2]; [4]
  Mean % Change ± SEM: 65.4 ± 9.1%
  Mean Latency ± SEM, Drug: 6.59 ± 0.73

## CSCC[C@H](NC(=O)[C@H](Cc1ccccc1)NC(=O)CNC(=O)CNC(=O)[C@@H](N)Cc1ccc(O)cc1)C(=O)O [Methionine-Enkephalin, H-Tyr-Gly-Gly-Phe-Met-OH]
Rats [1]
  analgesia: induce a profound analgesia that is fully reversible by naloxone
Guinea pig ileum
  block of electrically evoked contractions: mimic the ability of morphine to block electrically evoked contractions
Rats [2]; [3]
  Mean % Change ± SEM: 37.2 ± 8.8%
  Mean Latency ± SEM, Drug: 5.19 ± 0.31
Mouse vas deferens
  block of electrically evoked contractions: mimic the ability of morphine to block electrically evoked contractions
Opiate receptor
  inhibition of stereospecific receptor binding of 3H-naloxone: inhibit the stereospecific receptor binding
